Counter-ions that a name gives are not always drawn.
Biological target: PI3Kδ (p110δ/p85α) (Homo sapiens (Human), UniProt O00329)
Assay: Example A3: PI3Kδ scintillation proximity assay
Format: biochemical
Conditions: for IC50: scintillation proximity assay, 20 μM ATP, 4 nM PI3Kδ, read-out: PI3Kδ SPA IC50
Procedure, shortened: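 p110δ/p85α (4 nM) phosphorylated 20 μM PIP2 with 20 μM ATP plus [γ-33P]ATP in MOPS pH 6.7, MgCl2, DTT, CHAPS, 0.5% DMSO, at RT. Stopped with EDTA/excess ATP, product captured on WGA SPA beads overnight and counted; IC50 from percent control activity versus log inhibitor.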

PI3Kδ (p110δ/p85α), sequence (O00329 whole entry): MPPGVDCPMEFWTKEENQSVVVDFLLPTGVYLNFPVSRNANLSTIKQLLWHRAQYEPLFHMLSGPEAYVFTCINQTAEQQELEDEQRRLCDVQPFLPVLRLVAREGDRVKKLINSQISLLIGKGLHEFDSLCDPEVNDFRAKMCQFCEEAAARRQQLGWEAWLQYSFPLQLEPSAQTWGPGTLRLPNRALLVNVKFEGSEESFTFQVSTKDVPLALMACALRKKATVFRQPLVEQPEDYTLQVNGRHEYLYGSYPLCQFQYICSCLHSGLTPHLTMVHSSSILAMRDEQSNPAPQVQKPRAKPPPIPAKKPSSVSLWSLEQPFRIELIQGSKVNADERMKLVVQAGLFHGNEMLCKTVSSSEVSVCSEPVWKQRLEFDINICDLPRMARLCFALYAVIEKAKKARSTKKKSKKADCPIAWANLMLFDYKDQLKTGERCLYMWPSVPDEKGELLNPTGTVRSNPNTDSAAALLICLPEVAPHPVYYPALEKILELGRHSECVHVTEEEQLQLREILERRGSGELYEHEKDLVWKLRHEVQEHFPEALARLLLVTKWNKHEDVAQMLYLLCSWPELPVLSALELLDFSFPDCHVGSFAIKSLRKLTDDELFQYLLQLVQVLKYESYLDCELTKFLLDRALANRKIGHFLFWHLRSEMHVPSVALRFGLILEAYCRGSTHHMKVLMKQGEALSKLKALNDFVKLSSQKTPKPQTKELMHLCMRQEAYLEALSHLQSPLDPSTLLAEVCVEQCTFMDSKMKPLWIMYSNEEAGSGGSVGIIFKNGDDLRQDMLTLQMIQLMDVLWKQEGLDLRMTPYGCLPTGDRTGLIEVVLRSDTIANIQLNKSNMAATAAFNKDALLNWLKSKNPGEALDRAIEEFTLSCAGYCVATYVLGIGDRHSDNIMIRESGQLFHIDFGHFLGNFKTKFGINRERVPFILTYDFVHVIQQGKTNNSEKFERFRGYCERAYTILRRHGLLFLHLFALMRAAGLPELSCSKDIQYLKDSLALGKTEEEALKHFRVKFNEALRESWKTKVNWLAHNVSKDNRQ
PI3Kδ (p110δ/p85α), sequence (P27986 whole entry partner): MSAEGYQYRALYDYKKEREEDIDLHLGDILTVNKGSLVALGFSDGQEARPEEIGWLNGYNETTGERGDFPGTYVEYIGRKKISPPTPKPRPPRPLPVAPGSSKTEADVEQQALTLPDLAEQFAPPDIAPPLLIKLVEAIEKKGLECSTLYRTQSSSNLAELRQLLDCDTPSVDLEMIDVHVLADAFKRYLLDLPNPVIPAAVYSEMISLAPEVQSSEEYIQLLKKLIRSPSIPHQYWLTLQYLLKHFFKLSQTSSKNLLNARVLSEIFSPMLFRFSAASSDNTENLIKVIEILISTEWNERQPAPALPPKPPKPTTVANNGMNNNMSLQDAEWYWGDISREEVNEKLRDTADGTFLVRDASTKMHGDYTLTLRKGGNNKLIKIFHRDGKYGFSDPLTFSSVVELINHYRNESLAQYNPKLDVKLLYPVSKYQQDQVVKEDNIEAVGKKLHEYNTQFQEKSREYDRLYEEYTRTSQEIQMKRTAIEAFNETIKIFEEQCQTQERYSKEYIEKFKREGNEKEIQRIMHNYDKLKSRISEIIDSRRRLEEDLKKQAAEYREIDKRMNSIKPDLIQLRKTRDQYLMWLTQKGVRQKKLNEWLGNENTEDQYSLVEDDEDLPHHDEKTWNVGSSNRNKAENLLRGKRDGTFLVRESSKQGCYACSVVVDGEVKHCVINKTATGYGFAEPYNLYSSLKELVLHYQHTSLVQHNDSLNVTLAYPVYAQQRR

Question: COCCN1CC(c2c(C)c(Cl)cc(C(C)n3nc(C)c4c(N)ncnc43)c2OC)C1 (racemic) [Example 9, 1-(1-{5-Chloro-2-methoxy-3-[1-(2-methoxyethyl)azetidin-3-yl]-4-methylphenyl}ethyl)-3-methyl-1H-pyrazolo[3,4-d]pyrimidin-4-amine] was tested. Which IC50 did it give?
Answer: Its IC50 is under 10 nM.

Question: COc1c(C(C)n2nc(C)c3c(N)ncnc32)cc(Cl)c(C#N)c1C1CN(CC2CCOC2)C1 (single isomer, unassigned) [Example 279, 4-[1-(4-Amino-3-methyl-1H-pyrazolo[3,4-d]pyrimidin-1-yl)ethyl]-6-chloro-3-methoxy-2-[1-(tetrahydrofuran-3-ylmethyl)azetidin-3-yl]benzonitrile] was tested. Which IC50 did it give?
Answer: Its IC50 is under 10 nM.

Question: CCOc1c(C(C)n2nc(C)c3c(N)ncnc32)cc(Cl)c(C#N)c1C1CN(CC2CCOC2)C1 (single isomer, unassigned) [Example 231, 4-[1-(4-Amino-3-methyl-1H-pyrazolo[3,4-d]pyrimidin-1-yl)ethyl]-6-chloro-3-ethoxy-2-[1-(tetrahydrofuran-3-ylmethyl)azetidin-3-yl]benzonitrile] was tested. Which IC50 did it give?
Answer: Its IC50 is under 10 nM.

Question: For CCOc1c(C(C)n2nc(C)c3c(N)ncnc32)cc(Cl)c(C#N)c1N1CC(OC)C1 (stereo not drawn) [Example 319, 4-[1-(4-amino-3-methyl-1H-pyrazolo[3,4-d]pyrimidin-1-yl)ethyl]-6-chloro-3-ethoxy-2-(3-methoxyazetidin-1-yl)benzonitrile], which IC50 is on record?
Answer: Its IC50 is under 10 nM.

Question: How did the IC50 turn out when COc1c([C@H](C)n2nc(C)c3c(N)ncnc32)cc(Cl)c(C#N)c1C1CN(C[C@@H](C)O)C1 [Example 362, 4-((S)-1-(4-amino-3-methyl-1H-pyrazolo[3,4-d]pyrimidin-1-yl)ethyl)-6-chloro-2-(1-((R)-2-hydroxypropyl)azetidin-3-yl)-3-methoxybenzonitrile] was run?
Answer: Its IC50 is under 10 nM.

Question: With CCOc1c(C(C)n2nc(C)c3c(N)ncnc32)cc(Cl)c(C)c1C1CN(C(=O)[C@@H](C)O)C1 (stereo partly drawn) [Example 100, (2R)-1-(3-{3-[1-(4-Amino-3-methyl-1H-pyrazolo[3,4-d]pyrimidin-1-yl)ethyl]-5-chloro-2-ethoxy-6-methylphenyl}azetidin-1-yl)-1-oxopropan-2-ol] as the compound, how does the IC50 read?
Answer: The IC50 was under 10 nM.

Question: How did the IC50 turn out when CCOc1c(C(C)n2nc(C#C[C@H](C)O)c3c(N)ncnc32)cc(Cl)c(C)c1-c1ccc(C(=O)N(C)C)nc1 (stereo partly drawn) [Example 80, 5-[3-(1-{4-Amino-3-[(3S)-3-hydroxybut-1-yn-1-yl]-1H-pyrazolo[3,4-d]pyrimidin-1-yl}ethyl)-5-chloro-2-ethoxy-6-methylphenyl]-N,N-dimethylpyridine-2-carboxamide bis(trifluoroacetate)] was run?
Answer: Its IC50 is under 10 nM.

Question: With COc1c(C(C)n2nc(C(F)F)c3c(N)ncnc32)cc(C#N)c(C)c1C1CN(CC(C)(C)O)C1 (racemic) [Example 133, 5-{1-[4-Amino-3-(difluoromethyl)-1H-pyrazolo[3,4-d]pyrimidin-1-yl]ethyl}-3-[1-(2-hydroxy-2-methylpropyl)azetidin-3-yl]-4-methoxy-2-methylbenzonitrile] as the compound, how does the IC50 read?
Answer: The IC50 was under 10 nM.

Question: COc1c(C(C)n2nc(C)c3c(N)ncnc32)cc(Cl)c(F)c1C1CN(C[C@@H](C)O)C1 (stereo partly drawn) [Example 69, (2R)-1-(3-{3-[1-(4-Amino-3-methyl-1H-pyrazolo[3,4-d]pyrimidin-1-yl)ethyl]-5-cyloro-6-fluoro-2-methoxyphenyl}azetidin-1-yl)propan-2-ol] was tested. Which IC50 did it give?
Answer: Its IC50 is under 10 nM.

Question: Which IC50 does the source give for COc1c(C(C)n2nc(C)c3c(N)ncnc32)cc(Cl)c(C)c1C1CN(CC(C)C#N)C1 (stereo not drawn) [Example 162, 3-(3-{3-[1-(4-Amino-3-methyl-1H-pyrazolo[3,4-d]pyrimidin-1-yl)ethyl]-5-chloro-2-methoxy-6-methylphenyl}azetidin-1-yl)-2-methylpropanenitrile] here?
Answer: The IC50 was under 10 nM.

Question: With COc1c(C(C)n2nc(C)c3c(N)ncnc32)cc(Cl)c(C)c1C1CNC(=O)O1 (stereo not drawn) [Example 325, 5-{3-[1-(4-Amino-3-methyl-1H-pyrazolo[3,4-d]pyrimidin-1-yl)ethyl]-5-chloro-2-methoxy-6-methylphenyl}-1,3-oxazolidin-2-one] as the compound, how does the IC50 read?
Answer: The IC50 was under 10 nM.

Question: With COc1c(C(C)n2nc(C(F)F)c3c(N)ncnc32)cc(Cl)c(F)c1C1CN(C[C@H](C)O)C1 (stereo partly drawn) [Example 76, (2S)-1-[3-(3-{1-[4-amino-3-(difluoromethyl)-1H-pyrazolo[3,4-d]pyrimidin-1-yl]ethyl}-5-chloro-6-fluoro-2-methoxyphenyl)azetidin-1-yl]propan-2-ol] as the compound, how does the IC50 read?
Answer: The IC50 was under 10 nM.

Question: How did the IC50 turn out when CCOc1c(C(C)n2nc(C(F)F)c3c(N)ncnc32)cc(Cl)c(C)c1-c1ccc(C(=O)N(C)C)nc1 (racemic) [Example 82, 5-(3-{1-[4-Amino-3-(difluoromethyl)-1H-pyrazolo[3,4-d]pyrimidin-1-yl]ethyl}-5-chloro-2-ethoxy-6-methylphenyl)-N,N-dimethylpyridine-2-carboxamide bis(trifluoroacetate)] was run?
Answer: The IC50 was under 10 nM.

Question: How did the IC50 turn out when CCOc1c(C(C)n2nc(C)c3c(N)ncnc32)cc(Cl)c(C)c1C1CN(C(=O)c2cnn(C)c2)C1 (stereo not drawn) [Example 101, 1-[1-(5-Chloro-2-ethoxy-4-methyl-3-{1-[(1-methyl-1H-pyrazol-4-yl)carbonyl]azetidin-3-yl}phenyl)ethyl]-3-methyl-1H-pyrazolo[3,4-d]pyrimidin-4-amine trifluoroacetate] was run?
Answer: The IC50 was under 10 nM.

Question: With COc1c(C(C)n2nc(C)c3c(N)ncnc32)cc(Cl)c(C#N)c1C1CN(S(=O)(=O)C(C)C)C1 (single isomer, unassigned) [Example 287, 4-[1-(4-Amino-3-methyl-1H-pyrazolo[3,4-d]pyrimidin-1-yl)ethyl]-6-chloro-2-[1-(isopropylsulfonyl)azetidin-3-yl]-3-methoxybenzonitrile] as the compound, how does the IC50 read?
Answer: Its IC50 is under 10 nM.

Question: Which IC50 does the source give for COc1c(C(C)n2nc(C)c3c(N)ncnc32)cc(Cl)c(C)c1C1CN(C(CO)C(F)(F)F)C1 (stereo not drawn) [Example 113, 2-(3-{3-[1-(4-Amino-3-methyl-1H-pyrazolo[3,4-d]pyrimidin-1-yl)ethyl]-5-chloro-2-methoxy-6-methylphenyl}azetidin-1-yl)-3,3,3-trifluoropropan-1-ol] here?
Answer: The IC50 was under 10 nM.

Question: CCC(C)N1CC(c2c(C)c(Cl)cc(C(C)n3nc(C)c4c(N)ncnc43)c2OC)C1 (stereo not drawn) [Example 8, 1-{1-[3-(1-sec-butylazetidin-3-yl)-5-chloro-2-methoxy-4-methylphenyl]ethyl}-3-methyl-1H-pyrazolo[3,4-d]pyrimidin-4-amine] was tested. Which IC50 did it give?
Answer: The IC50 was under 10 nM.

Question: With CCOc1c(C(C)n2nc(C)c3c(N)ncnc32)cc(Cl)c(C)c1C1CN(CC(C)(C)O)C1 (single isomer, unassigned) [Example 98, 1-(3-{3-[1-(4-Amino-3-methyl-1H-pyrazolo[3,4-d]pyrimidin-1-yl)ethyl]-5-chloro-2-ethoxy-6-methylphenyl}azetidin-1-yl)-2-methylpropan-2-ol] as the compound, how does the IC50 read?
Answer: Its IC50 is under 10 nM.

Question: How did the IC50 turn out when COc1c(C(C)n2nc(C(F)F)c3c(N)ncnc32)cc(C#N)c(C)c1C1CN(CCO)C1 (racemic) [Example 130, 5-{1-[4-Amino-3-(difluoromethyl)-1H-pyrazolo[3,4-d]pyrimidin-1-yl]ethyl}-3-[1-(2-hydroxyethyl)azetidin-3-yl]-4-methoxy-2-methylbenzonitrile] was run?
Answer: The IC50 was under 10 nM.

Question: COc1c(C(C)n2nc(C)c3c(N)ncnc32)cc(Cl)c(C)c1-c1cncc(C(=O)N(C)C)c1 (single isomer, unassigned) [Example 65, 5-{3-[1-(4-amino-3-methyl-1H-pyrazolo[3,4-d]pyrimidin-1-yl)ethyl]-5-chloro-2-methoxy-6-methylphenyl}-N,N-dimethylnicotinamide] was tested. Which IC50 did it give?
Answer: Its IC50 is under 10 nM.

Question: CCOc1c(C(C)n2nc(C)c3c(N)ncnc32)cc(Cl)c(C#N)c1C1CNC1 (single isomer, unassigned) [Example 212, 4-[1-(4-Amino-3-methyl-1H-pyrazolo[3,4-d]pyrimidin-1-yl)ethyl]-2-azetidin-3-yl-6-chloro-3-ethoxybenzonitrile] was tested. Which IC50 did it give?
Answer: The IC50 was under 10 nM.

Question: Which IC50 does the source give for CCOc1c(C(C)n2nc(C)c3c(N)ncnc32)cc(Cl)c(C)c1C1CN(C[C@@H](C)O)C1 (stereo partly drawn) [Example 97, (2R)-1-(3-{3-[1-(4-Amino-3-methyl-1H-pyrazolo[3,4-d]pyrimidin-1-yl)ethyl]-5-chloro-2-ethoxy-6-methylphenyl}azetidin-1-yl)propan-2-ol] here?
Answer: Its IC50 is under 10 nM.

Question: For CCOc1c(C(C)n2nc(C)c3c(N)ncnc32)cc(Cl)c(C#N)c1C1CN(CC2CC2)C1 (single isomer, unassigned) [Example 217, 4-[1-(4-Amino-3-methyl-1H-pyrazolo[3,4-d]pyrimidin-1-yl)ethyl]-6-chloro-2-[1-(cyclopropylmethyl)azetidin-3-yl]-3-ethoxybenzonitrile], which IC50 is on record?
Answer: Its IC50 is under 10 nM.

Question: Which “relative activity among the four separated diastereomers (peaks 1-4)” value (assay not specified) does the source give for CCOc1c(C(C)n2nc(C)c3c(N)ncnc32)cc(Cl)c(F)c1C1CNC(=O)O1 (stereo not drawn) [Example 357, 5-{3-[1-(4-amino-3-methyl-1H-pyrazolo[3,4-d]pyrimidin-1-yl)ethyl]-5-chloro-2-ethoxy-6-fluorophenyl}-1,3-oxazolidin-2-one] here?
Answer: The value was “most active enantiomer”.

Question: For COc1c(C(C)n2nc(C(F)F)c3c(N)ncnc32)cc(C#N)c(C)c1C1CN(CC(F)(F)F)C1 (racemic) [Example 129, 5-{1-[4-Amino-3-(difluoromethyl)-1H-pyrazolo[3,4-d]pyrimidin-1-yl]ethyl}-4-methoxy-2-methyl-3-[1-(2,2,2-trifluoroethyl)azetidin-3-yl]benzonitrile], which IC50 is on record?
Answer: The IC50 was under 10 nM.

Question: With COc1c(C(C)n2nc(C)c3c(N)ncnc32)cc(Cl)c(C)c1C1CN(CC(F)(F)F)C1 (single isomer, unassigned) [Example 108, 1-(1-{5-Chloro-2-methoxy-4-methyl-3-[1-(2,2,2-trifluoroethyl)azetidin-3-yl]phenyl}ethyl)-3-methyl-1H-pyrazolo[3,4-d]pyrimidin-4-amine] as the compound, how does the IC50 read?
Answer: Its IC50 is under 10 nM.

Question: How did the IC50 turn out when CCOc1c(C(C)n2nc(C)c3c(N)ncnc32)cc(Cl)c(C#N)c1C1CN(C2CCOCC2)C1 (single isomer, unassigned) [Example 229, 4-[1-(4-Amino-3-methyl-1H-pyrazolo[3,4-d]pyrimidin-1-yl)ethyl]-6-chloro-3-ethoxy-2-[1-(tetrahydro-2H-pyran-4-yl)azetidin-3-yl]benzonitrile] was run?
Answer: Its IC50 is under 10 nM.

Source: US10092570B2 (Incyte Corporation, priority 2011, dated 2018)
